Patent publication US10472341B2, “Bicyclic tetrahydrothiazepine derivatives useful for the treatment of neoplastic and/or infectious diseases” (APEIRON BIOLOGICS AG, priority 2015, dated 2019)
Like-named read-outs stand apart in the source and are kept apart here.

Tests used:
[1] = test system: aCD3/aCD28-stimulated human PBMCs; test: Cytokine production in aCD3/aCD28 stimulated human PBMCs; type: cell-based; settings: PBMC, 18 h
Procedure, shortened: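 Ficoll-isolated human PBMCs at 1e6 cells/mL in X-Vivo15, stimulated with soluble anti-CD3/CD28 (OKT3 and 28.2, 1 μg/mL each) plus compound for 18 h at 37° C. Supernatant cytokines quantified by MSD or HTRF.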

non-stimulated PBMCs = test: Non-stimulated PBMCs: cytokine secretion and signs of T-cell activation; type: cell-based, human
From the text: This is an important finding for compounds that shall selectively act on T cells which have been activated by presence of antigen from pathogens or tumors, but shall not lead to an unwanted general activation of all T cells of a patient.

OT-II cells = test: OT-II transfer model, oral administration: antigen-specific T cell proliferation and CD69; type: in vivo, mouse; settings: LPS & OVA; 10 mg/kg dosed orally
Procedure: (§1) • Single cell suspension of splenocytes was prepared from the spleen by rinsing cells through a sterile 70 μm filter with PBS • Cells were collected by centrifugation in an 15 ml tube, the cell pellet was resuspended in 1 ml of Erylyse buffer and incubated at room temperature for 5 minutes, tubes were filled up with PBS and cells were washed twice • Cells were counted and resuspended in the desired buffer volume for MACS-enrichment or flow cytometric analysis Isolation of CD4 T Cells from OT-II Transgenic Mice • Splenocytes were resuspended in MACS buffer ([…] MACS-buffer/10^7 cells) • CD4 T cells were isolated using the CD4 T cell isolation kit (Miltenyi) with LS-columns following manufacturer's recommendations CFSE-Labeling of T Cells • Cells were resuspended in PBS with 0.1% BSA at 1×10^7 cells/ml and CFSE-solution was added to final concentration of 2.5 μM CFSE • Incubated for 10 min at 37° C., swung each 2 min • Same volume of FCS added and incubated for 5 min at room temperature • Cells were washed twice with RMPI-10% FCS medium • Cells were counted and resuspended in PBS or medium at desired concentration OT-II Transfer • Day 0: OT-II cells were transferred in PBS (3*10^6. Cells in 100 μl PBS) by retro-orbital injection • Day 1: WT mice got OVA vaccinated (subcut. flank, 10 μg LPS, 2 μg OVA per animal) • 2 & 4 h later compounds were administrated; for oral dosing compound was used as suspension (0.5% methylcellulose in water), for i.v. dosing compound was solubilized in DMSO and diluted with PBS • Day 2: compounds were administrated twice in the morning (with 2 h time interval) • Day 3: Mice were sacrificed & splenocytes were isolated • T cell proliferation & phenotype was determined by flow cytometry • Flow cytometry-Staining (all Abs purchased from eBioscience and used as recommended by the manufacturer): B220-eF450, CD4-PE, CD25PerCPCy5.5, CD69-PC7, TCRVa2-APC, CD8-AF700, CD3-eF780; CFSE; 7-AAD • Acquisition on Beckman-Coulter Gallios, Analysis using Kaluza Software OT-I Transfer to Mice with B16-F10-OVA Tumors • Day 0: 100000 B16-F10-OVA tumor cells were inoculated subcutaneously at the flank of WT-mice • Day 7: OT-I cells were transferred in PBS (3*10^6. […]

[2] = test system: CD4 T cells, CD8 T cells and NK cells of B16-F10-OVA tumor bearing mice; test: Immune modulation of B16-F10-OVA tumor bearing mice: activation markers in tumor draining lymph nodes (flow cytometry); type: in vivo, mouse; settings: day 15
Procedure: as §1

B16-F10-OVA tumors = test: Immune modulation of B16-F10-OVA tumor bearing mice: tumor infiltration by immune cells (quantitative RT-PCR); type: in vivo, mouse; settings: tumor mRNA
Procedure: as §1

CC(=O)NCCCCCOc1ccc(CNC(=O)c2ccc3c(c2)N(Cc2ccc(Cl)cc2)C(=O)[C@@H](N)CS3(=O)=O)cc1.Cl [Example 78, (3R)-3-amino-5-[(4-chlorophenyl)methyl]-N-({4-[(5-acetamidopentyl)oxy]phenyl}-methyl)-1,1,4-trioxo-2,3,4,5-tetrahydro-1λ^6,5-benzothiazepine-7-carboxamide hydrochloride]
EC50 ([1]; enhancement of IFN-γ production, read-out: Activity Class IFN-γ): < 1580 nM
EC50 ([1]; enhancement of IL-2 production, read-out: Activity Class IL-2): < 1580 nM
cytokine secretion or other signs of T-cell activation (non-stimulated PBMCs): did not enhance cytokine secretion or other signs of T-cell activation

N[C@H]1CS(=O)(=O)c2cc(F)c(C(=O)NC3CC3(F)F)cc2N(Cc2ccc(Cl)cc2)C1=O (stereo partly shown) [compound ex. 1]
CD69+ cells, B cells of recipient animal (OT-II cells): 2.10 % gated
CD69+ cells, CD8 T cells of recipient animal (OT-II cells): 3.48 % gated
CD69+ cells, WT CD4 T cells of recipient animal (OT-II cells): 7.00 % gated
CD69+ cells, transferred OT-II cells (OT-II cells): 46.92 % gated

N[C@H]1CS(=O)(=O)c2cc(F)c(C(=O)NC3CC3(F)F)cc2N(Cc2ccc(Cl)cc2)C1=O (stereo partly shown) [Compound Ex. 1]
Average CD25+ cells ([2]; CD4 T cells, 10 mg/kg orally): 15.63 % gated
Average CD69+ cells ([2]; CD4 T cells, 10 mg/kg orally): 13.34 % gated
Average CD107a+ cells ([2]; CD4 T cells, 10 mg/kg orally): 5.03 % gated
Average PD1+ cells ([2]; CD4 T cells, 10 mg/kg orally): 10.73 % gated
Average CD25+ cells ([2]; CD4 T cells, 30 mg/kg orally): 15.91 % gated
Average CD69+ cells ([2]; CD4 T cells, 30 mg/kg orally): 14.25 % gated
Average CD107a+ cells ([2]; CD4 T cells, 30 mg/kg orally): 5.43 % gated
Average PD1+ cells ([2]; CD4 T cells, 30 mg/kg orally): 10.36 % gated
Average CD25+ cells ([2]; CD8 T cells, 10 mg/kg orally): 1.95 % gated
Average CD69+ cells ([2]; CD8 T cells, 10 mg/kg orally): 5.25 % gated
Average CD107a+ cells ([2]; CD8 T cells, 10 mg/kg orally): 2.00 % gated
Average PD1+ cells ([2]; CD8 T cells, 10 mg/kg orally): 3.12 % gated
Average CD25+ cells ([2]; CD8 T cells, 30 mg/kg orally): 2.88 % gated
Average CD69+ cells ([2]; CD8 T cells, 30 mg/kg orally): 5.91 % gated
Average CD107a+ cells ([2]; CD8 T cells, 30 mg/kg orally): 4.24 % gated
Average PD1+ cells ([2]; CD8 T cells, 30 mg/kg orally): 6.71 % gated
Average CD69+ cells ([2]; NK cells, 10 mg/kg orally): 34.43 % gated
Average CD107a+ cells ([2]; NK cells, 10 mg/kg orally): 12.85 % gated
Average PD1+ cells ([2]; NK cells, 10 mg/kg orally): 19.91 % gated
Average CD69+ cells ([2]; NK cells, 30 mg/kg orally): 32.55 % gated
Average CD107a+ cells ([2]; NK cells, 30 mg/kg orally): 10.98 % gated
Average PD1+ cells ([2]; NK cells, 30 mg/kg orally): 13.61 % gated
Average CD4 expression (B16-F10-OVA tumors; 10 mg/kg orally): 7.07 EF1a * 10^4
Average CD8 expression (B16-F10-OVA tumors; 10 mg/kg orally): 6.28 EF1a * 10^4
Average IFN-g expression (B16-F10-OVA tumors; 10 mg/kg orally): 0.75 EF1a * 10^4
Average IL-2 expression (B16-F10-OVA tumors; 10 mg/kg orally): 0.043 EF1a * 10^4
Average IL-12 expression (B16-F10-OVA tumors; 10 mg/kg orally): 0.074 EF1a * 10^4
Average IL-23 expression (B16-F10-OVA tumors; 10 mg/kg orally): 0.480 EF1a * 10^4
Average Ratio Eomes/Foxp3 (B16-F10-OVA tumors; 10 mg/kg orally): 0.66
Average Ratio Rorgc/Foxp3 (B16-F10-OVA tumors; 10 mg/kg orally): 5.38
Average Ratio T-bet/Foxp3 (B16-F10-OVA tumors; 10 mg/kg orally): 8.35
Average TNF-a expression (B16-F10-OVA tumors; 10 mg/kg orally): 9.96 EF1a * 10^4
Average CD4 expression (B16-F10-OVA tumors; 30 mg/kg orally): 9.65 EF1a * 10^4
Average CD8 expression (B16-F10-OVA tumors; 30 mg/kg orally): 10.72 EF1a * 10^4
Average IFN-g expression (B16-F10-OVA tumors; 30 mg/kg orally): 1.23 EF1a * 10^4
Average IL-2 expression (B16-F10-OVA tumors; 30 mg/kg orally): 0.085 EF1a * 10^4
Average IL-12 expression (B16-F10-OVA tumors; 30 mg/kg orally): 0.120 EF1a * 10^4
Average IL-23 expression (B16-F10-OVA tumors; 30 mg/kg orally): 0.611 EF1a * 10^4
Average Ratio Eomes/Foxp3 (B16-F10-OVA tumors; 30 mg/kg orally): 0.64
Average Ratio Rorgc/Foxp3 (B16-F10-OVA tumors; 30 mg/kg orally): 6.17
Average Ratio T-bet/Foxp3 (B16-F10-OVA tumors; 30 mg/kg orally): 9.59
Average TNF-a expression (B16-F10-OVA tumors; 30 mg/kg orally): 14.97 EF1a * 10^4
